{
  "source": "patent US20100273656A1",
  "about": "“COMPOSITION AND METHOD FOR SELECTIVE HERBICIDE” (priority 2002, published 2010)",
  "key": {"daisy (Bellis perennis)": {"test_system": "daisy (Bellis perennis)", "test": "Example 11 field test, daisy in lawn", "assay_type": "in vivo", "method": "Killex® (Green Cross, Ontario, Canada) is a commonly used selective lawn herbicide and was included in several field tests as a standard. Killex contains 2,4-D (9.5%), mecoprop (5%) and dicamba (0.9%). The product was diluted 6 ml into 1 L of water solution and applied at rate of 200 ml/m^2, as per label instructions.\nThis test investigated the effect of FeHEDTA and a mixture of FeEDDS and FeMGDA on daisy (Bellis perennis), dandelion (Taraxacum officinale) and a turf bentgrass (Agrostis sp.). The chelating agents were used at one and a half times the molar amount of iron. The FeHEDTA solutions contained 0.2% iron (35.8 mM). The commercially prepared FeHEDTA product from the Monterey Chemical Company (CA, USA) was used as a standard. The (FeEDDS+FeMGDA) solutions contained 0.4% iron (71.6 mM) and the same molar amount of EDDS and MGDA. The solutions were made from NaEDDS (Octaquest E30, Octel) and NaMGDA (Trilon M liquid, BASF, Germany). Ammonium sulfate was added at a concentration of 1%. Killex (Solaris ON, Canada) was diluted and applied as per label instructions of 6 ml/L applied at 200 ml/m^2.\nThe daisy (0.25 m^2) and dandelion (0.5 m^2) test plots were in different areas of the bentgrass field. The dandelions were large, averaging 30 cm in diameter. The daisy patches were between 10 and 20 cm in diameter. The plants were sprayed weekly 4 times."}, "perennial ryegrass [1]": {"test_system": "perennial ryegrass", "test": "Example 17 iron chelates with Killex, perennial ryegrass", "assay_type": "in vivo", "method": "(§1) Plants were fertilized with an all purpose water-soluble fertilizer mix of 20-20-20 (N-P-K; Plant-Prod®) as needed. All broadleaf weeds were grown individually in a 2¼-inch pot until they were a suitable size for herbicide tests (actual weed size is reported in examples below). Perennial ryegrass was also grown in 2¼-inch pots, however many grass seeds were sown in the pot to simulate a small section of turf. Grass plants were continually trimmed to a height of 4 cm, simulating that of a homeowner's lawn. For field tests, plots ¼ m^2 in size were marked out in areas containing the targeted broadleaf weed species growing in turf grass. Plots were continually mowed to simulate a homeowner's lawn. […] In all of the examples, the amounts of the various herbicide components are identified as a percent on a weight basis.\n(§2) Killex® (Scotts Canada, Ltd., Ontario, Canada) is a commonly used selective lawn herbicide and was used as the commercial herbicide for herbicide combinations. The labeled dilution and application rates for Killex® are 6 ml into 1 L of solution (0.6%) applied at 200 ml/m^2.\n(§3) All visual plant damage assessments were made using a quantitative rating scale; percent control relative to the untreated check (0=no effect; 100=plant death).\n(§4) Materials and Methods: This trial was conducted in the greenhouse. Nine pots of white clover and 10 pots of perennial ryegrass were selected for each treatment. Herbicidal solutions were prepared using deionized water. The treatments were applied using a handheld trigger sprayer at 200 ml/m^2. All treatments were applied once. Phytotoxicity (%) was assessed 4, 7, and 14 days after application (A4, A7, and A14)."}, "dandelions": {"test_system": "dandelions", "test": "Example 2 field test of FeEDDS and FeHEDTA at pH 3 and 7, dandelion", "assay_type": "in vivo, Taraxacum officinale", "method": "(§5) The following non-limiting examples serve to further describe the invention. Unless otherwise specified, all of the iron solutions were made using the same molar concentration of iron ion as chelating agent. All of the outside tests were done on areas of mixed grass and dandelions that were at least 2 months old. For the greenhouse tests, dandelions were grown in a commercial greenhouse mix, using supplemental lighting and heating. Each plant was grown in a 2¼ inch pot to a minimum diameter of 20 cm. All of the solutions were sprayed onto the plants at a rate of 100 ml/m^2. The ferrous sulfate formulations that were used in examples 1, 2, 8 and 9 contained 1% iron (180 mM), 18 mM EDTA, 1% citric acid and 0.5% urea. In all of the examples, the amount of iron is identified in brackets as the percent iron on a weight basis.\n(§6) All plant damage was assessed using a qualitative rating scale from 0 to 9.\nThe FeEDDS and FeHEDTA solutions contained 0.2% Fe^+3 (35.8 mM). The ferrous sulfate contained 1% Fe^+2 (179.1 mM). The solutions were sprayed at a rate of 0.1 L/m^2 onto 2 plots of 0.5 m^2 of mixed grass and dandelions. Observations were made 4 days after spraying."}, "perennial ryegrass [2]": {"test_system": "perennial ryegrass", "test": "Example 18 FeHEDTA with Killex, perennial ryegrass", "assay_type": "in vivo", "method": "as §1, §2, §3\nas §4, with “Herbicide” for “Herbicidal”, “hand-trigger” for “handheld trigger”"}, "grass": {"test_system": "grass", "test": "Example 1 field test of iron chelates, grass damage", "assay_type": "in vivo", "settings": "in vivo", "method": "as §5, §6\nAll of the iron chelates were sprayed once at 0.2% Fe^+3 (35.8 mM), at a volume of 100 ml/m^2 onto 0.5 m^2 areas of mixed grass and dandelions. The spraying of the test was followed by 2 days of rain-free weather. Observations were made 5 days after spraying."}, "broadleaf plantain": {"test_system": "broadleaf plantain", "test": "Example 19 FeHEDTA with Killex at reduced rates, broadleaf plantain", "assay_type": "in vivo", "settings": "Killex ® 0%, 7 days after application", "method": "as §1, §2, §3\nas §4, with “Ten broadleaf plantain plants” for “Nine pots of white clover”, “5” for “10”, “Herbicide” for “Herbicidal”, “hand-trigger” for “handheld trigger”, “7” for “4, 7, and 14”, “(A7).” for “(A4, A7, and A14).”"}},
  "data": [
    {"smiles": "O=C([O-])CN(CCO)CCN(CC(=O)[O-])CC(=O)[O-].[Fe+3]", "note": "[FeHEDTA]", "values": [
      {"measurement": "Plot Area Covered by Daisy Plants (%)", "setting": "daisy (Bellis perennis); day 0 (start of test)", "value": 60, "unit": "%"},
      {"measurement": "Daisy Necrosis (%)", "setting": "daisy (Bellis perennis); day 2", "value": 20, "unit": "%"},
      {"measurement": "Daisy Necrosis (%)", "setting": "daisy (Bellis perennis); day 10", "value": 95, "unit": "%"},
      {"measurement": "Plot Area Covered by Daisy Plants (%)", "setting": "daisy (Bellis perennis); day 13, sprayed weekly 4 times", "value": 1, "unit": "%"},
      {"measurement": "Daisy Necrosis (%)", "setting": "daisy (Bellis perennis); day 16", "value": 98, "unit": "%"},
      {"measurement": "Plot Area Covered by Daisy Plants (%)", "setting": "daisy (Bellis perennis); day 21", "value": 2, "unit": "%"},
      {"measurement": "Daisy Necrosis (%)", "setting": "daisy (Bellis perennis); day 23", "value": 98, "unit": "%"},
      {"measurement": "Plot Area Covered by Daisy Plants (%)", "setting": "daisy (Bellis perennis); day 30", "value": 0.5, "unit": "%"},
      {"measurement": "Phytotoxicity (%) against perennial ryegrass", "setting": "perennial ryegrass [1]; A4", "value": 8, "unit": "%"},
      {"measurement": "Phytotoxicity (%) against perennial ryegrass", "setting": "perennial ryegrass [1]; A7", "value": 7, "unit": "%"},
      {"measurement": "Phytotoxicity (%) against perennial ryegrass", "setting": "perennial ryegrass [1]; A14", "value": 1, "unit": "%"},
      {"measurement": "Dandelion Damage (0 to 9)", "setting": "dandelions; solution pH 2.6-3.0, 0.1 L/m^2, 4 days after spraying", "value": "7.0 0 to 9"},
      {"measurement": "Dandelion Damage (0 to 9)", "setting": "dandelions; solution pH 7.0-7.1, 0.1 L/m^2, 4 days after spraying", "value": "7.5 0 to 9"},
      {"measurement": "Phytotoxicity (%) on perennial ryegrass", "setting": "perennial ryegrass [2]; A4", "value": 2, "unit": "%"},
      {"measurement": "Phytotoxicity (%) on perennial ryegrass", "setting": "perennial ryegrass [2]; A7", "value": 1, "unit": "%"},
      {"measurement": "Phytotoxicity (%) on perennial ryegrass", "setting": "perennial ryegrass [2]; A14", "value": 2, "unit": "%"},
      {"measurement": "Grass Damage (0 to 9)", "setting": "grass", "value": 0},
      {"measurement": "A7 Phytotoxicity (%) against broadleaf plantain", "setting": "broadleaf plantain; listed as FeHEDTA 0.1% Fe", "value": 9, "unit": "%"},
      {"measurement": "A7 Phytotoxicity (%) against broadleaf plantain", "setting": "broadleaf plantain; listed as FeHEDTA 0.2% Fe", "value": 10, "unit": "%"},
      {"measurement": "A7 Phytotoxicity (%) against broadleaf plantain", "setting": "broadleaf plantain; listed as FeHEDTA 0.4% Fe", "value": 22, "unit": "%"}
    ]}
  ]
}
